Data reported in the NIST ThermoML archive (doi:10.1007/s10765-009-0648-5).
Numbers after ± are expanded uncertainties.

Assay: wn = mass fraction of the nth substance listed
Settings: 101 kPa, Liquid

CCC[n+]1ccn(C)c1.[Br-] [1-methyl-3-propylimidazolium bromide] + CC#N
Settings | mass density, 288.15 K [kg/m3] | mass density, 293.15 K [kg/m3] | mass density, 298.15 K [kg/m3] | mass density, 303.15 K [kg/m3] | mass density, 308.15 K [kg/m3] | speed of sound, 288.15 K [m/s] | speed of sound, 293.15 K [m/s] | speed of sound, 298.15 K [m/s] | speed of sound, 303.15 K [m/s] | speed of sound, 308.15 K [m/s]
w1 = 0.0042 | 788.991 ± 1.4 | 783.623 ± 1.4 | 778.237 ± 1.4 | 772.813 ± 1.4 | 767.37 ± 1.5 | 1320.2 ± 1.4 | 1300.1 ± 1.4 | 1280 ± 1.4 | 1259.7 ± 1.4 | 1239.6 ± 1.4
w1 = 0.0061 | 789.726 ± 1.4 | 784.364 ± 1.4 | 778.979 ± 1.4 | 773.562 ± 1.4 | 768.119 ± 1.5 | 1320.5 ± 1.4 | 1300.3 ± 1.4 | 1280.2 ± 1.4 | 1260 ± 1.4 | 1240.1 ± 1.4
w1 = 0.0082 | 790.532 ± 1.4 | 785.181 ± 1.4 | 779.798 ± 1.4 | 774.387 ± 1.4 | 768.949 ± 1.5 | 1321.1 ± 1.4 | 1301.1 ± 1.4 | 1281 ± 1.4 | 1260.9 ± 1.4 | 1240.8 ± 1.4
w1 = 0.0107 | 791.47 ± 1.4 | 786.115 ± 1.4 | 780.735 ± 1.4 | 775.331 ± 1.4 | 769.896 ± 1.5 | 1321.5 ± 1.4 | 1301.3 ± 1.4 | 1281.2 ± 1.4 | 1261.1 ± 1.4 | 1241.2 ± 1.4
w1 = 0.0124 | 792.123 ± 1.4 | 786.772 ± 1.4 | 781.397 ± 1.4 | 775.996 ± 1.4 | 770.564 ± 1.5 | 1322 ± 1.4 | 1302 ± 1.4 | 1281.9 ± 1.4 | 1261.8 ± 1.4 | 1241.7 ± 1.4
w1 = 0.0161 | 793.533 ± 1.3 | 788.186 ± 1.4 | 782.814 ± 1.4 | 777.417 ± 1.4 | 771.996 ± 1.4 | 1322.6 ± 1.4 | 1302.5 ± 1.4 | 1282.4 ± 1.4 | 1262.3 ± 1.4 | 1242.5 ± 1.4
w1 = 0.0206 | 795.242 ± 1.3 | 789.902 ± 1.4 | 784.538 ± 1.4 | 779.149 ± 1.4 | 773.734 ± 1.4 | 1323.5 ± 1.4 | 1303.4 ± 1.4 | 1283.4 ± 1.4 | 1263.4 ± 1.4 | 1243.5 ± 1.4
w1 = 0.0251 | 796.939 ± 1.3 | 791.606 ± 1.4 | 786.248 ± 1.4 | 780.864 ± 1.4 | 775.46 ± 1.4 | 1324.4 ± 1.4 | 1304.3 ± 1.4 | 1284.3 ± 1.4 | 1264.4 ± 1.4 | 1244.6 ± 1.4
w1 = 0.0298 | 798.688 ± 1.3 | 793.361 ± 1.4 | 788.011 ± 1.4 | 782.637 ± 1.4 | 777.238 ± 1.4 | 1325.3 ± 1.4 | 1305.3 ± 1.4 | 1285.3 ± 1.4 | 1265.4 ± 1.4 | 1245.6 ± 1.4
w1 = 0.0347 | 800.578 ± 1.3 | 795.262 ± 1.3 | 789.919 ± 1.4 | 784.553 ± 1.4 | 779.16 ± 1.4 | 1326.4 ± 1.4 | 1306.5 ± 1.4 | 1286.6 ± 1.4 | 1266.7 ± 1.4 | 1246.8 ± 1.4
w1 = 0.0407 | 802.812 ± 1.3 | 797.5 ± 1.3 | 792.166 ± 1.4 | 786.808 ± 1.4 | 781.426 ± 1.4 | 1327.3 ± 1.4 | 1307.4 ± 1.4 | 1287.5 ± 1.4 | 1267.6 ± 1.4 | 1248 ± 1.4
w1 = 0.0493 | 806.071 ± 1.3 | 800.772 ± 1.3 | 795.452 ± 1.3 | 790.107 ± 1.4 | 784.738 ± 1.4 | 1329.1 ± 1.4 | 1309.3 ± 1.4 | 1289.4 ± 1.4 | 1269.6 ± 1.4 | 1249.8 ± 1.4
w1 = 0.0605 | 810.335 ± 1.3 | 805.049 ± 1.3 | 799.743 ± 1.3 | 794.412 ± 1.4 | 789.059 ± 1.4 | 1331 ± 1.4 | 1311.1 ± 1.4 | 1291.3 ± 1.4 | 1271.6 ± 1.4 | 1252.1 ± 1.4
w1 = 1 | 1323.47 ± 3.3 | 1319.84 ± 3.3 | 1316.22 ± 3.3 | 1312.6 ± 3.2 | 1308.97 ± 3.2 | 1699.3 ± 2.6 | 1685 ± 2.6 | 1672 ± 2.6 | 1659.9 ± 2.6 | 1648.3 ± 2.6
